Measurements taken from article PMC8165550, “Molecular basis for diaryldiamine selectivity and competition with tRNA in a type 2 methionyl-tRNA synthetase from a Gram-negative bacterium” (The Journal of Biological Chemistry, 2021).
Values after ≈ are worked out from the molar mass of the structure shown. Values joined by “and” are separate entries in the source; they are usually repeats but may differ in a detail not shown here. Equal values may be shown once. Read-outs that look alike come from different tables or passages of the source.

Key:
XcMetRS (WT) [1] = molecular target: T1, XcMetRS (WT) (Xanthomonas citri pv. citri, UniProt Q8PMP0); assay: XcMetRS enzyme kinetic assay (coupled fluorometric AMP/resorufin assay); type: biochemical; design: His tag with TEV site (from pET28-TEV vector) (N); made in house; host or cells: E. coli BL21(DE3)
T1 sequence (Q8PMP0 whole entry): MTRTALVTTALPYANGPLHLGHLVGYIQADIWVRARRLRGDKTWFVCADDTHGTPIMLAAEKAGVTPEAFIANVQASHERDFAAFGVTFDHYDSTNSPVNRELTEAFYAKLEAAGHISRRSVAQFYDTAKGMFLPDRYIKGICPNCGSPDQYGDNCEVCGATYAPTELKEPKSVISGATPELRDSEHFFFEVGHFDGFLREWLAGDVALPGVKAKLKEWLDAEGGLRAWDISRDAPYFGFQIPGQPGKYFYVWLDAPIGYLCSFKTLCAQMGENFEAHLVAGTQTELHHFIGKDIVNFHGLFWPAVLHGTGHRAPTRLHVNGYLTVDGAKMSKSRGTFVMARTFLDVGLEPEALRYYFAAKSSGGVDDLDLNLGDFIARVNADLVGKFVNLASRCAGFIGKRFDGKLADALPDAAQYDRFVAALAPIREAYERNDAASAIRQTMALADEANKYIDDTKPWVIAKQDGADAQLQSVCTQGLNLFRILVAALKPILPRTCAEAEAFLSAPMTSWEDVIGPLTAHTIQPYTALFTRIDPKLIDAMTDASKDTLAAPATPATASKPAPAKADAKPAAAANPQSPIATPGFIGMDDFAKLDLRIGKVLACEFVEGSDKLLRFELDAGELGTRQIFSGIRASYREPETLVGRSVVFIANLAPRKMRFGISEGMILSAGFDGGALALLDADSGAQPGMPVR
Description: Similarly, vmax^app, K’, and Hill slope (h) were obtained for ATP using the equation v = (vmax^app x [S]^h)/(K’ + [S]^h). The catalytic rate constant (kcat) was estimated by the equation kcat = vmax^app/Et, where Et is the enzyme concentration in the assay.

XcMetRS (WT) [2] = molecular target: T1, XcMetRS (WT); type: binding; design: His tag with TEV site (from pET28-TEV vector) (N); made in house; host or cells: E. coli BL21(DE3)
Procedure: All wells contained 2% DMSO used to prepare stock solutions of REP3123 and REP8839. Protein unfolding was monitored on a 7500 Real-Time PCR System (Applied Biosystems) cycler by measuring fluorescence (λEmission = 580 nm) during 71 cycles starting at 25 °C, with a one-degree Celsius increment at each cycle. Experimental data points were normalized and adjusted to the equation y = ymin + ((ymax − ymin)/(1 + e^(Tm − T)/S)), where ymax and ymin are normalized fluorescence values, Tm is the melting temperature, T is the temperature, and S is the slope.

X. citri strain 306 = assay: Antibiogram, agar disc-diffusion assay; conditions: X. citri strain 306, LBON-agar, 24 h at 28 °C
Procedure: (§1) X. citri 306 was cultivated on LBON medium (10 g/l tryptone; 5 g/l yeast extract; pH 7.0) at 28 °C. The susceptibility to distinct antibiotics was evaluated using the disc-diffusion method. Briefly, a bacterial suspension was prepared in sterile saline solution (0.85% NaCl) to an optical density of 0.1 (approximately 1.5 × 10^8 CFU/ml) and used to inoculate the surface of an LBON-agar plate (1.7% agar; 150 × 15 mm Petri dish; 55 ml/dish). Antibiotic discs were applied 15 min after inoculum, and after incubation for 24 h at 28 °C, images were recorded with a camera. The minimum inhibitory concentration was obtained through broth microdilution method. These assays were performed with eight replicates for each compound concentration. Serial 2-fold dilutions of compounds were prepared in DMSO and 1 μl transferred to sterile 96-well assay plates containing 49 μl of the culture media (LBON). Then, 50 μl of a bacterial suspension (1 × 10^6 CFU/ml) was added to each well. Plates were incubated at 28 °C for 24 h before addition of 10 μl of resazurin 0.02%. After a new incubation (up to 4 h), the fluorescence (λExc/Em = 570–615 nm) was measured using a plate reader (CLARIOstar, BMG LabTech). Blanks were prepared with culture media. Positive and negative controls were prepared with DMSO and tetracycline (10 μg/ml).

X. citri 306 = assay: X. citri growth inhibition, broth microdilution with resazurin; conditions: for MIC (minimum inhibitory concentration): X. citri 306, LBON, 28 °C, 24 h, at least 90% growth inhibition; for EC50 / MIC: Xanthomonas citri, 306, 24 h; for EC50: read-out: EC50 (growth inhibition); for MIC: read-out: MIC (minimum inhibitory concentration)
Procedure: as §1

[3] = molecular target: coupled enzyme system (ScAMD, CjIMPDH, diaphorase); assay: Control: inhibition of the coupled enzyme system used to detect AMP production; conditions: read-out: IC50 on coupled enzyme system, without XcMetRS step
Procedure: Inhibition studies using the XcMetRS-ScAMD-CjIMPDH-diaphorase–coupled assay (Fig. S2) were performed at various concentrations (half-log serial dilutions starting at 100 μM) of the inhibitors in anhydrous dimethyl sulfoxide (DMSO). Assays were performed at 25 °C in black 384-well microplates in 25-μl final volume in 0.1 M Tris HCl, pH 7.5, 0.15 M KCl, 10 mM MgCl2, and 0.01% Triton X-100.
Values correspond to measurements of four independent experiments and error bars denote standard deviations.

XcMetRS = molecular target: T2, XcMetRS (Xanthomonas citri pv. citri, UniProt Q8PMP0); assay: Isothermal titration calorimetry (ITC); type: binding; conditions: for Kd: 20 °C
T2 construct: His tag with TEV site (from pET28-TEV vector) (N); made in house; host or cells: E. coli BL21(DE3)
T2 sequence (Q8PMP0 whole entry): as above
Procedure: ITC measurements were performed on a MicroCal VP-ITC calorimeter equipped with a VPViewer2000 software for data acquisition at the Spectroscopy and Calorimetry Lab facility (LEC) from the Brazilian Bioscience National Laboratory/Brazilian Centre for Research in Energy and Materials (LNBio/CNPEM). Purified XcMetRS (10 μM) was titrated against the ligands in 0.1 M Hepes, pH 7.5, containing 0.3 M NaCl, 10 mM MgCl2, 5% glycerol in the absence or presence of AMP or ATP at a 5 mM final concentration. To avoid nucleotide dilution, AMP/ATP was added to both ligand and receptor solutions. The ligands were added to the protein solutions kept in a 2-ml experimental cell using a titration syringe. The reactions were performed at 20 °C under agitation (200 rpm), starting with a first injection of 2 μl of ligand solution (200 μM) during 4 s, followed by 27 injections of 10 μl with 200-s intervals between injections. Titration results were corrected for ligand dilution, and all the data were analyzed using Origin7.0 software.

XcMetRS (WT) [4] = molecular target: T1, XcMetRS (WT)
Procedure: Inhibition studies using the XcMetRS-ScAMD-CjIMPDH-diaphorase–coupled assay (Fig. S2) were performed at various concentrations (half-log serial dilutions starting at 100 μM) of the inhibitors in anhydrous dimethyl sulfoxide (DMSO). Assays were performed at 25 °C in black 384-well microplates in 25-μl final volume in 0.1 M Tris HCl, pH 7.5, 0.15 M KCl, 10 mM MgCl2, and 0.01% Triton X-100. […] Plots were prepared in GraphPad Prism.

Nc1ncnc2c1ncn2[C@@H]1O[C@H](COP(=O)(O)OP(=O)(O)OP(=O)(O)O)[C@@H](O)[C@H]1O [ATP]
kcat (XcMetRS (WT) [1]; ATP as varied substrate): 0.33 ± 0.005 s⁻¹
h (Hill slope) (XcMetRS (WT) [1]; ATP varied): 3.3
K’ (XcMetRS (WT) [1]; ATP varied, L-Met 200 μM): 0.95 ± 0.08 mM
Tm (XcMetRS (WT) [2]; ligand 5 mM): 51.3 ^oC
Tm (XcMetRS (WT) [2]; ligand 5 mM, listed as ATP:Mg): 51,3 ± 0,3 ^oC
Tm shift (XcMetRS (WT) [2]; ligand alone): 3.0 °C

C[C@H]1[C@H](NC(=O)/C(=N\OC(C)(C)C(=O)O)c2csc(N)n2)C(=O)N1S(=O)(=O)O [Aztreonam]
susceptibility phenotype of X. citri in antibiogram (X. citri strain 306): resistant

CSCC[C@H](N)C(=O)O [L-Met, L-methionine]
kcat (XcMetRS (WT) [1]; L-Met as varied substrate): 0.2062 ± 0.00467 s⁻¹
Tm (XcMetRS (WT) [2]; ligand 5 mM): 55,9 ± 0,2 ^oC

O=c1cc(NCCCN[C@@H]2CCOc3c(Br)cc(Br)cc32)[nH]c2ccsc12 [REP3123]
MIC (minimum inhibitory concentration) (X. citri 306): > 128 µg/mL
EC50 (X. citri 306): 60.5 ± 1 µg/mL (≈ 118 µM)
MIC (X. citri 306): > 128 µg/mL
IC50 [3]: 26400 nM
Tm (XcMetRS (WT) [2]; ligand 25 µM): 47,9 ± 0,1 ^oC
Tm (XcMetRS (WT) [2]; ligand + ATP:Mg): 50,7 ± 0,1 ^oC

C=C(F)c1sc(CNCCCNc2cc(O)c3ccccc3n2)c(C)c1Br [REP8839]
Kd (XcMetRS; in the presence of AMP (5 mM)): 630 nM and 600 nM
Kd (XcMetRS; in the presence of ATP (5 mM)): 1370 nM and 1400 nM
KD (XcMetRS; in the absence of nucleotides): no KD for REP8839 could be measured
MIC (minimum inhibitory concentration) (X. citri 306): 64 µg/mL (≈ 142 µM)
EC50 (X. citri 306): 25.5 ± 1 µg/mL (≈ 56.6 µM)
MIC (X. citri 306): 64 µg/mL (≈ 142 µM)
IC50 (XcMetRS (WT) [4]): 20800 ± 6500 nM
Tm (XcMetRS (WT) [2]; ligand 25 µM): 50,6 ± 0,1 ^oC
Tm (XcMetRS (WT) [2]; ligand + ATP:Mg): 52,8 ± 0,1 ^oC

CC1(C)S[C@@H]2[C@H](NC(=O)[C@H](N)c3ccc(O)cc3)C(=O)N2[C@H]1C(=O)O [amoxicillin]
susceptibility phenotype of X. citri in antibiogram (X. citri strain 306): resistant

CC1(C)S[C@@H]2[C@H](NC(=O)[C@H](N)c3ccccc3)C(=O)N2[C@H]1C(=O)O [ampicillin]
susceptibility phenotype of X. citri in antibiogram (X. citri strain 306): resistant

N[C@@H](C(=O)N[C@@H]1C(=O)N2C(C(=O)O)=C(Cl)CS[C@H]12)c1ccccc1 [cefaclor]
susceptibility phenotype of X. citri in antibiogram (X. citri strain 306): resistant

CO/N=C(\C(=O)N[C@@H]1C(=O)N2C(C(=O)[O-])=C(C[N+]3(C)CCCC3)CS[C@H]12)c1csc(N)n1 [cefepime]
susceptibility phenotype of X. citri in antibiogram (X. citri strain 306): resistant

CO/N=C(\C(=O)N[C@@H]1C(=O)N2C(C(=O)O)=C(COC(C)=O)CS[C@H]12)c1csc(N)n1 [cefotaxime]
susceptibility phenotype of X. citri in antibiogram (X. citri strain 306): resistant

CO[C@@]1(NC(=O)Cc2cccs2)C(=O)N2C(C(=O)O)=C(COC(N)=O)CS[C@@H]21 [cefoxitin]
susceptibility phenotype of X. citri in antibiogram (X. citri strain 306): resistant

CC(C)(O/N=C(\C(=O)N[C@@H]1C(=O)N2C(C(=O)[O-])=C(C[n+]3ccccc3)CS[C@H]12)c1csc(N)n1)C(=O)O [ceftazidime]
susceptibility phenotype of X. citri in antibiogram (X. citri strain 306): resistant

CO/N=C(\C(=O)N[C@@H]1C(=O)N2C(C(=O)O)=C(CSc3nc(=O)c(=O)[nH]n3C)CS[C@H]12)c1csc(N)n1 [ceftriaxone]
susceptibility phenotype of X. citri in antibiogram (X. citri strain 306): resistant

CC(=O)OCC1=C(C(=O)O)N2C(=O)[C@@H](NC(=O)Cc3cccs3)[C@H]2SC1 [cephalothin]
susceptibility phenotype of X. citri in antibiogram (X. citri strain 306): resistant

C[C@@H](O)[C@H]1C(=O)N2C(C(=O)O)=C(SCCN=CN)C[C@H]12 [imipenem]
susceptibility phenotype of X. citri in antibiogram (X. citri strain 306): resistant

O=C1CN(/N=C/c2ccc([N+](=O)[O-])o2)C(=O)N1 [nitrofurantoin]
susceptibility phenotype of X. citri in antibiogram (X. citri strain 306): resistant

NC[C@H]1O[C@H](O[C@H]2[C@H](O)[C@@H](O[C@H]3O[C@H](CO)[C@@H](O)[C@H](N)[C@H]3O)[C@H](N)C[C@@H]2N)[C@H](N)C[C@@H]1O [tobramycin]
susceptibility phenotype of X. citri in antibiogram (X. citri strain 306): close to breakpoint values considered for a resistant phenotype

neomycin
susceptibility phenotype of X. citri in antibiogram (X. citri strain 306): close to breakpoint values considered for a resistant phenotype
